This note sets out measurements from ChEMBL document CHEMBL1201862, “PubChem BioAssay data set” (2004).

Among the test systems are SF-268; ACHN; HOP-62; IGROV-1; PC-3; HCT-116; SK-OV-3; TK-10; SNB-19; HOP-92; SK-MEL-5; Hs-578T; OVCAR-8; RXF 393; RPMI-8226; A498; UACC-257; SF-295; SN12C.
Assay in all cases: NCI anticancer screen, dose series, 48 h

Each structure is given as a SMILES string.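 All cell lines were grown in 96-well plates and treated with compound for 48 hours. GI50 = concentration required for 50% inhibition of growth.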 Activity calls are given as the source filed them. No stated cut-off is given here; in the data, active = GI50 up to about 1.1 µM and inactive = higher. Some results are limits rather than exact numbers.

Take `Nc1ccc2c(c1)N(C(=O)CCCC(=O)N1CC(CCl)c3ccc(N)cc31)CC2CCl` (stereo not drawn): the GI50 was 0.115 µM (active) with SF-268; 0.112 µM (active) with ACHN; 0.262 µM (active) with HOP-62; 0.411 µM (active) with IGROV-1; 1.08 µM (active) with PC-3; 0.394 µM (active) in the assay with HCT-116. The GI50 is 2.34 µM (inactive) with SK-OV-3; 1.53 µM (inactive) in the assay with TK-10; 1.21 µM (inactive) in the assay on SNB-19; 1.97 µM (inactive) in the assay on HOP-92; 0.236 µM (active) in the assay on SK-MEL-5; 0.918 µM (active) in the assay on Hs-578T. Besides, the GI50 in the assay on OVCAR-8 was 0.466 µM (active); in the assay on RXF 393, 0.195 µM (active); in the assay with RPMI-8226, 0.26 µM (active); with A498 it was 1.07 µM (active); in the assay on UACC-257, 1.26 µM (inactive); in the assay on SF-295, 0.4 µM (active). The GI50 in the assay with SN12C was 0.469 µM (active).
In the case of `CN(C)c1ccc(/C=C2\C[C@H]3[C@@H]4CCc5cc(OCCN6CCCC6)ccc5[C@H]4CC[C@]3(C)[C@H]2O)cc1`, the GI50 in the assay on SF-268 was 21.9 µM (inactive); in the assay on ACHN, 18.1 µM (inactive); with HOP-62, 15.1 µM (inactive); with IGROV-1, 16.1 µM (inactive); with PC-3, 13.8 µM (inactive); in the assay with HCT-116 it was 2.71 µM (inactive). For the same compound, the GI50 in the assay with SK-OV-3 is 16.6 µM (inactive); in the assay with TK-10, 5.5 µM (inactive); in the assay with SNB-19, 18.7 µM (inactive); in the assay with HOP-92, 6.07 µM (inactive); with SK-MEL-5 it was 9.66 µM (inactive); with Hs-578T it was 21.8 µM (inactive). Further, the GI50 with OVCAR-8 was 6.32 µM (inactive); in the assay with RXF 393, 13.7 µM (inactive); in the assay with RPMI-8226, 8.28 µM (inactive); with A498, 17.8 µM (inactive); in the assay with UACC-257 it was 6.11 µM (inactive); in the assay on SF-295 it was 13.1 µM (inactive). The GI50 in the assay with SN12C was 16.9 µM (inactive).
With `O=C(Cn1c2ccc(Br)cc2c2nc3ccccc3nc21)NCc1ccccc1`, the GI50 in the assay with SF-268 is 38 µM (inactive); in the assay with ACHN it was 13.4 µM (inactive); in the assay with HOP-62, 23 µM (inactive); with IGROV-1, 67 µM (inactive); in the assay on PC-3, > 100 µM (inactive); with HCT-116, 94.6 µM (inactive). Also, the GI50 in the assay with SK-OV-3 was 44.3 µM (inactive); in the assay with TK-10, 17.7 µM (inactive); in the assay on SNB-19 it was 22.3 µM (inactive); in the assay with HOP-92 it was 2.01 µM (inactive); with SK-MEL-5, > 100 µM (inactive); in the assay on Hs-578T, 22.1 µM (inactive). Moreover, the GI50 in the assay with OVCAR-8 was 23.4 µM (inactive); in the assay on RXF 393, 12 µM (inactive); in the assay with RPMI-8226, > 100 µM (inactive); in the assay with A498, 31.2 µM (inactive); in the assay on UACC-257, > 100 µM (inactive); in the assay on SF-295, 29 µM (inactive). For the same compound, the GI50 with SN12C is > 100 µM (inactive).
Take `COc1ccc(C)cc1Nc1nnc(-c2ccc(N)cc2)s1`: the GI50 in the assay on SF-268 is > 100 µM (inactive); in the assay on ACHN, > 100 µM (inactive); with HOP-62, 51.8 µM (inactive); in the assay on IGROV-1 it was > 100 µM (inactive); in the assay with PC-3, 96.4 µM (inactive); in the assay on HCT-116, 49.4 µM (inactive). For the same compound, the GI50 in the assay on SK-OV-3 is > 100 µM (inactive); in the assay on SNB-19, > 100 µM (inactive); in the assay on HOP-92, > 100 µM (inactive); in the assay on SK-MEL-5, 24.5 µM (inactive); with Hs-578T, > 100 µM (inactive); in the assay on OVCAR-8 it was 87.3 µM (inactive). Further, the GI50 in the assay on RXF 393 was 62.4 µM (inactive); with RPMI-8226, 31.5 µM (inactive); in the assay on A498 it was > 100 µM (inactive); in the assay with UACC-257, 81.1 µM (inactive); in the assay on SF-295 it was 43.4 µM (inactive); in the assay with SN12C it was > 100 µM (inactive).
For `CC(NC1=NCCO1)c1ccsc1` (stereo not drawn), the GI50 in the assay on ACHN is 44.9 µM (inactive); with IGROV-1, 34.8 µM (inactive); in the assay with PC-3 it was 21.1 µM (inactive); with HCT-116, 16.4 µM (inactive); with SK-OV-3, 71.8 µM (inactive); in the assay with TK-10 it was 65.5 µM (inactive). For the same compound, the GI50 was 37.3 µM (inactive) in the assay on SNB-19; 23.6 µM (inactive) with HOP-92; 20 µM (inactive) with SK-MEL-5; 11.5 µM (inactive) with Hs-578T; 28.6 µM (inactive) in the assay on OVCAR-8; 33.5 µM (inactive) in the assay on RXF 393. The GI50 is 7.52 µM (inactive) in the assay with RPMI-8226, > 100 µM (inactive) with A498, 14.4 µM (inactive) with UACC-257 and 17.8 µM (inactive) in the assay on SF-295.
Turning to `CCCCOC(=O)C1CC[C@H]2[C@@H]3CCc4cc(OC(=O)c5cccc6c(=O)c7ccccc7[nH]c56)ccc4[C@H]3CC[C@]12C` (stereo partly drawn), the GI50 is 9.44 µM (inactive) in the assay with SF-268; 8.69 µM (inactive) with ACHN; 9.35 µM (inactive) with HOP-62; 8.13 µM (inactive) in the assay with IGROV-1; 8.71 µM (inactive) in the assay on PC-3; 9.31 µM (inactive) with HCT-116. Besides, the GI50 is 9.86 µM (inactive) with SK-OV-3; 7.96 µM (inactive) in the assay with TK-10; 8.3 µM (inactive) with HOP-92; 6.46 µM (inactive) in the assay with SK-MEL-5; 12.9 µM (inactive) in the assay on Hs-578T; 10.7 µM (inactive) in the assay on OVCAR-8. The GI50 in the assay on RXF 393 is 9.48 µM (inactive); in the assay on RPMI-8226 it was 9.06 µM (inactive); in the assay on A498, 8.83 µM (inactive); in the assay with UACC-257, 8.47 µM (inactive); in the assay on SF-295, 8.53 µM (inactive); in the assay on SN12C, 8.45 µM (inactive).
For `CC(=O)O[C@@H]1[C@@H](C)[C@]2(CC(c3ccoc3)OC2O)C2CCC3O[C@]3(C)[C@]2(C)[C@@H]1OC(C)=O` (stereo partly drawn), the GI50 in the assay with SF-268 was 91 µM (inactive); in the assay on ACHN, 38 µM (inactive); in the assay with IGROV-1, 41.8 µM (inactive); with PC-3, 32.8 µM (inactive); in the assay with HCT-116 it was 33.7 µM (inactive); with SK-OV-3, > 100 µM (inactive). Besides, the GI50 in the assay on TK-10 is 47.5 µM (inactive); with SNB-19 it was > 100 µM (inactive); in the assay on HOP-92 it was 34 µM (inactive); in the assay with SK-MEL-5, 25.4 µM (inactive); in the assay on Hs-578T, 48.5 µM (inactive); in the assay with OVCAR-8, 37.2 µM (inactive). The GI50 in the assay with RXF 393 was 35.1 µM (inactive); in the assay on RPMI-8226, 25.9 µM (inactive); in the assay on A498, 95.1 µM (inactive); with UACC-257 it was 29.4 µM (inactive); with SF-295 it was 71.6 µM (inactive); in the assay with SN12C it was 39 µM (inactive).
For `C=C[C@@H]1C(CO)=CCC2[C@H]1CCC1C(C)(C)C(=O)CC[C@]21C` (stereo partly drawn), the GI50 in the assay on SF-268, in the assay on ACHN, in the assay with HOP-62, in the assay with IGROV-1, in the assay on PC-3 and with HCT-116 was > 100 µM (inactive) each time. Besides, the GI50 with SK-OV-3, with TK-10, in the assay on SNB-19, in the assay with HOP-92, in the assay on SK-MEL-5 and in the assay on Hs-578T was > 100 µM (inactive) each time. Further, the GI50 in the assay with RXF 393, in the assay on RPMI-8226, in the assay on A498, in the assay with UACC-257, in the assay on SF-295 and with SN12C was > 100 µM (inactive) each time.
As to `O=C1CC(=O)NC(NN2C(=O)CSC2c2ccc(Cl)cc2)=N1` (stereo not drawn), the GI50 was 45 µM (inactive) with SF-268; > 100 µM (inactive) in the assay on ACHN; 24.9 µM (inactive) in the assay on HOP-62; > 100 µM (inactive) in the assay on IGROV-1; > 100 µM (inactive) in the assay with PC-3; > 100 µM (inactive) in the assay with HCT-116. For the same compound, the GI50 in the assay with SK-OV-3 was > 100 µM (inactive); in the assay with TK-10 it was > 100 µM (inactive); in the assay with HOP-92 it was > 100 µM (inactive); in the assay with SK-MEL-5, > 100 µM (inactive); in the assay on Hs-578T it was 25.6 µM (inactive); in the assay on OVCAR-8, 91.6 µM (inactive). Also, the GI50 with RXF 393 is > 100 µM (inactive); in the assay on RPMI-8226, > 100 µM (inactive); with A498, > 100 µM (inactive); with UACC-257, > 100 µM (inactive); in the assay with SF-295, > 100 µM (inactive); in the assay on SN12C, 18.4 µM (inactive).
On to `COC(=O)C1C(O)CCC2CN3CCc4c([nH]c5cccc(OC)c45)C3CC21` (stereo not drawn), for which the GI50 with SF-268, in the assay on ACHN, with HOP-62, with IGROV-1, in the assay on PC-3 and in the assay with HCT-116 was > 100 µM (inactive) in each case. The GI50 with SK-OV-3, in the assay on TK-10, in the assay on SNB-19, in the assay with HOP-92, in the assay with Hs-578T and in the assay on OVCAR-8 was > 100 µM (inactive) throughout. Besides, the GI50 is 59.2 µM (inactive) with RXF 393; > 100 µM (inactive) in the assay on RPMI-8226; > 100 µM (inactive) in the assay with A498; > 100 µM (inactive) with UACC-257; > 100 µM (inactive) with SF-295; > 100 µM (inactive) with SN12C.
Consider `CCOc1ccc2nc(NC(=O)/C(CC(=O)CC(C3=C(O)c4ccccc4CC3=O)c3ccccc3)=N\O)sc2c1` (stereo not drawn), for which the GI50 in the assay on SF-268, in the assay on ACHN, with IGROV-1, with PC-3, in the assay with HCT-116 and with SK-OV-3 was > 100 µM (inactive) in each case. Besides, the GI50 with SNB-19, with HOP-92, in the assay with SK-MEL-5, with Hs-578T, in the assay with OVCAR-8 and in the assay with RXF 393 was > 100 µM (inactive) in each case. Also, the GI50 in the assay on RPMI-8226, in the assay with A498, in the assay with UACC-257, in the assay with SF-295 and in the assay on SN12C was > 100 µM (inactive) throughout.
